This is an account of results in US8106235B2, “Biphenyl compound selective agonists of gamma RAR receptors” (Galderma Research & Development, priority 2005, dated 2012).

Data set [1] has as its system RAR gamma. In words: Transactivation test (luciferase reporter, apparent Kd by Schild regression against a reference antagonist), RAR gamma. It is filed as cell-based. To be noted: statement in words, from the Kdapp values of the transactivation test. The procedure:
(§1) The activation of the receptors by an agonist (activator) in HeLa cells results in the expression of a reporter gene, luciferase, which, in the presence of a substrate, generates light. It is thus possible to measure the activation of the receptors by quantifying the luminescence produced after incubation of the cells in the presence of a reference antagonist. The activating products displace the antagonist from its site, thus allowing activation of the receptor. The activity is measured by quantifying the increase in the light produced. This measurement makes it possible to determine the activator activity of the compound that can be used in the invention.
(§2) In this study, a constant which is the affinity of the molecule for the receptor is determined. Since this value can fluctuate according to the basal activity and the expression of the receptor, it is designated apparent Kd (KdApp).
(§3) In order to determine this constant, “cross curves” of the test product (4′-(3′-hydroxypropyl)-3′-(5,5,8,8-tetramethyl-5,6,7,8-tetrahydronaphthalen-2-yl)biphenyl-4-carboxylic acid and 4′-(2,3-dihydroxypropyl)-3′-(5,5,8,8-tetramethyl-5,6,7,8-tetrahydronaphthalen-2-yl)biphenyl-4-carboxylic acid), against a reference antagonist otherwise known as reference ligand, 4-(5,5-dimethyl-8-p-tolyl-5,6-dihydronaphthalen-2-ylethynyl)benzoic acid, are produced. The test product is used at 10 concentrations and the reference antagonist at 7 concentrations. In each well (of a 96-well plate), the cells are in contact with one concentration of the test product and one concentration of the reference antagonist. […]
(§4) These cross curves make it possible to determine the AC50 values (concentration at which 50% activation of the receptor is observed) of the reference ligand at various concentrations of test product. These AC50 values are used to calculate the Schild regression by plotting a straight line corresponding to the Schild equation (“Quantitation in receptor pharmacology” Terry P. Kenakin, Receptors and Channels, 2001, 7, 371-385).
(§5) In the case of an agonist, the AC50 is calculated by plotting the curve of the product at the concentration of the reference ligand giving 80% activation. The percentage activation which corresponds to the maximum level of activity obtained is also measured. […]
(§6) The culture medium is removed by turning the plates over, and […] of a 1:1 PBS (phosphate buffered solution)/luciferin mixture are added to each well. After 5 minutes, the plates are read using the luminescence reader.

The target in data set [2] is T1, RAR gamma (Homo sapiens, UniProt P13631).
T1 construct: RAR gamma Kdapp; apparent Kd; It drives the ERE-βGlob-Luc reporter
T1 sequence (P13631 185-419 limits assumed): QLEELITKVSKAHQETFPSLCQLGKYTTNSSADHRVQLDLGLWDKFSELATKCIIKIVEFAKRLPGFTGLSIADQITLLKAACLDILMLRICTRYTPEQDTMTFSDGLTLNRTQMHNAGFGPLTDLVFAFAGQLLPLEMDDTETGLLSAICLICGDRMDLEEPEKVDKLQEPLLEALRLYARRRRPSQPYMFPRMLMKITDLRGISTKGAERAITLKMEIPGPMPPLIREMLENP
The data set is described as above. It is filed as cell-based. To be noted: HeLa stable transfectants, ERE-βGlob-Luc reporter, RAR gamma; apparent Kd; read-out: RAR gamma Kdapp. The procedure: as §1, §2, §3, §4, §5, §6

The target in a further data set is T2, RAR beta (Homo sapiens, UniProt P10826).
T2 construct: It drives the ERE-βGlob-Luc reporter
T2 sequence (P10826 183-417 limits assumed): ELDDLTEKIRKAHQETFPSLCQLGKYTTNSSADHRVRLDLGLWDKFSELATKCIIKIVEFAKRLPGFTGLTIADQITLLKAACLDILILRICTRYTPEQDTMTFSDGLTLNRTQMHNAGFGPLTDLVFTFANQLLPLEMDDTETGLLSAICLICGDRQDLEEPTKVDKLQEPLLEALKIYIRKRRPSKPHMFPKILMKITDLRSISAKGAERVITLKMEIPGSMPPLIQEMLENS
In words: Transactivation test (luciferase reporter, apparent Kd by Schild regression against a reference antagonist), RAR beta. It is filed as cell-based. The settings on record: HeLa stable transfectants, ERE-βGlob-Luc reporter, read-out: RAR beta Kdapp. As to the method:
as §1
(§7) In this study, a constant which is the affinity of the molecule for the receptor is determined. […]
as §4
(§8) In the case of an agonist, the AC50 is calculated by plotting the curve of the product at the concentration of the reference ligand giving 80% activation. […]
A general note: Reporter assays use an easily measured gene product as a stand-in for the process of interest.

The next data set deals with T3, RAR alpha (Homo sapiens, UniProt P10276).
T3 construct: It drives the ERE-βGlob-Luc reporter
T3 sequence (P10276 183-417 limits assumed): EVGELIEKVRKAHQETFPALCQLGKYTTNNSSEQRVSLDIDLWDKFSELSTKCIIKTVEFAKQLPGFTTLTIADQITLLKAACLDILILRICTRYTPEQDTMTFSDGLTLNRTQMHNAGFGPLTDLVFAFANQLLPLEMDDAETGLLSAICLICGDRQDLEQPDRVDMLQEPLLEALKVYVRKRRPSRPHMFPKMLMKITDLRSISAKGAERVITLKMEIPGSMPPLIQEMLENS
Briefly: Transactivation test (luciferase reporter, apparent Kd by Schild regression against a reference antagonist), RAR alpha. It is filed as cell-based. To be noted: HeLa stable transfectants, ERE-βGlob-Luc reporter, read-out: RAR alpha Kdapp. As to the method: as §1, §7, §4, §8

By melting point is commonly meant the temperature of the solid-liquid transition. In turn, `CC1(C)CCC(C)(C)c2cc(-c3cc(-c4ccc(C(=O)O)cc4)ccc3CCCO)ccc21` [Example 1, 4′-(3-hydroxypropyl)-3′-(5,5,8,8-tetramethyl-5,6,7,8-tetrahydronaphthalen-2-yl)biphenyl-4-carboxylic acid] came in with a melting point of 203 °C. The “selectivity for the RAR gamma receptor subtype in comparison with RAR alpha and RAR beta” value in the data set with RAR gamma [1] was “better selectivity of these compounds for the RAR gamma receptor subtype”. Also, the Kd on RAR gamma [2] amounted to 0.1 nM. Further, at RAR beta, the Kd was found to be 2 nM. Besides, the Kd on RAR alpha amounted to 15 nM.
Take `CC1(C)CCC(C)(C)c2cc(-c3cc(-c4ccc(C(=O)O)cc4)ccc3CC(O)CO)ccc21` (stereo not drawn) [Example 2, 4′-(2,3-dihydroxypropyl)-3′-(5,5,8,8-tetramethyl-5,6,7,8-tetrahydronaphthalen-2-yl)biphenyl-4-carboxylic acid]: the “selectivity for the RAR gamma receptor subtype in comparison with RAR alpha and RAR beta” value in the data set on RAR gamma [1] is “better selectivity of these compounds for the RAR gamma receptor subtype”. In addition, the figures for the Kd on RAR gamma [2], at RAR beta and on RAR alpha were 0.5 nM, 15 nM and 60 nM, respectively.
